Patent US20120028921A1, “METHODS AND COMPOSITIONS USING OXIDIZED PHOSPHOLIPIDS” (The Johns Hopkins University, priority 2004, published 2012)
“Also recorded” adds a separate entry of the source.

Key:
[1] = system: human pulmonary endothelial cells (HPAEC); settings: literature (Goggel et al. 2004); cited from earlier work
Erk-1,2 = Erk-1,2 MAP kinase cascade activation, phospho-specific immunoblotting; assay type: cell-based, human; settings: for effect on OxPAPC-induced Erk-1,2 cascade activation/phosphorylation: UO-126 5 μM, genistein 100 μM, PKC peptide inhibitor 20 μM, BHT preincubated with OxPAPC
Method: (§1) Western immunoblotting. Protein extracts were separated by SDS-PAGE, transferred to polyvinylidene difluoride (PVDF) membranes (30 V for 18 h or 90 V for 2 h), and the membranes were incubated with specific antibodies of interest. Equal protein loadings were verified by reprobing membranes with anti-Erk, anti-Fax, or anti-paxillin antibodies. Immunoreactive proteins were detected with the enhanced chemiluminescent detection system (ECL) according to the manufacturer's directions (New England BioLabs, Beverly, Mass.). The relative intensities of the protein bands were quantified by scanning densitometry using Image Quant 5.2 (Molecular Dynamics, Piscataway, N.J.) software.
(§2) Activation of MAP kinase pathways and characterization of tyrosine phosphorylation. Activation of MAP kinase cascade was by monitored by western immunoblotting techniques using phosphospecific antibodies, which are described in Materials section and detect activated form of protein kinases of the MAP kinase cascade. Analysis of the total protein tyrosine phosphorylation was performed by immunoblotting with phosphotyrosine antibody.

PKC = PKC activation: phospho-PKC substrate immunoblot and in vitro kinase assay of lysates; assay type: cell-based, human
Method: (§3) Analysis of PKC and PKA activities. After stimulation with OxPAPC (20 μg/ml, 15 min), HPAEC were lysed, cell lysates were clarified by centrifugation (14000 g, 5 min, +4 C.°), and PKA and PKC activities were measured using in vitro kinase assay kits obtained from Promega Corp. (Madison, Wis.) according to manufacturer protocol. Additionally, OxPAPC-induced PKC and PKA activation in HPAEC cultures was determined by immunoblotting of whole cell lysates with phospho-PKC substrate- and phospho-PKA substrate-specific antibodies that recognize PKA- or PKC-phosphorylated sites in the EC endogenous proteins.

[2] = system: protein tyrosine phosphorylation; assay: Total protein tyrosine phosphorylation, phosphotyrosine immunoblot; assay type: cell-based, human; settings: for effect on OxPAPC-induced protein tyrosine phosphorylation: genistein 100 μM, BHT preincubated with OxPAPC
Method: as §1, §2

JNK = JNK MAP kinase phosphorylation, immunoblotting; assay type: cell-based, human
Method: as §1, §2

p38 = p38 MAP kinase phosphorylation, immunoblotting; assay type: cell-based, human; settings: 20 μg/ml
Method: as §1, §2

PKA = PKA activation: phospho-PKA substrate immunoblot and in vitro kinase assay of lysates; assay type: cell-based, human; settings: phospho-PKA substrate immunoblot
Method: as §3

[3] = system: human pulmonary endothelial cells (HPAEC); assay: Transendothelial electrical resistance (TER), ECIS system; assay type: cell-based; settings: for effect on transendothelial electrical resistance (TER): agent alone, phospholipids up to 20 μg/ml; for effect of pretreatment on OxPAPC-induced TER increase: BHT 5 μM 10 min preincubated with OxPAPC, toxin B 100 ng/ml, Y27632 5 μM, 1 hr; for co-elution with TER-increasing activity in HPLC-MS of fraction 2: reversed phase HPLC fractions tested on TER; for effect of synthetic fragmented phospholipids on TER: prepared by chemical synthesis
Method: Human pulmonary endothelial cells (HPAEC) were cultured and transfected with cDNAs as described previously (Birukov et al., 2002). Lipid oxidation and analysis of oxidation products by positive ion electrospray mass spectrometry (ESI-MS) was performed as described previously (Watson et al., 1997, Leitinger et al. 1999 and, Bochov et al. 2002). Measurements of transendothelial electrical resistance were performed using electrical cell substrate impedance-sensing (ECIS) system as described elsewhere (Garcia et al., 2001 and Birukova et al., 2004). Transient transfections and siRNA-based protein depletion of small GTPases were performed as described elsewhere (Birukov et al. 2002, Birukova et al., 2004 and Birukova et al., 2004a). Rac, Cdc42 and Rho activation assays were performed using assay kits from Upstate Biotechnology (Lake Placid, N.Y.) (Garcia et al., 2001 and Birukova et al., 2004). Subcellular protein fractionation, western blot analyses and densitometric analyses were performed from at least 3 experiments as described (Birukova et al., 2004). Immunofluorescent staining of HPAEC was performed as previously described (Birukov et al., 2002, Birukova et al., 2004). ANOVAs and a post hoc Student-Newman-Keuls test were used to compare the means of two or more different treatment groups. Results were expressed as the mean±SE. Differences between two groups were considered statistically significant with a value of P<0.05.

FAK = FAK Tyr576 phosphorylation, immunoblot; assay type: cell-based, human; settings: PP-2 5 μM pretreatment
Method: as §1

paxillin = assay: Paxillin Tyr118 phosphorylation, immunoblot; assay type: cell-based, human; settings: PP-2 5 μM pretreatment
Method: as §1

[4] = HPAEC monolayers, thrombin 50 nM

platelet activating factor [PAF]
barrier effect compared with OxPAPC [1]: does not mimic barrier-protective OxPAPC effects

CCCCC/C=C\C/C=C\C/C=C\C/C=C\CCCC(=O)O[C@H](COC(=O)CCCCCCCCCCCCCCC)COP(=O)([O-])OCC[N+](C)(C)C [PAPC, 1-palmitoyl-2-arachidomoyl-sn-glycero-3-phosphorylcholine]
Erk-1,2 activation (Erk-1,2; 20 μg/ml): had no effect
PKC-mediated phosphorylation of endogenous substrates (PKC; phospho-PKC substrate immunoblot): did not significantly increase
protein tyrosine phosphorylation ([2]; 20 μg/ml): without effect
phosphorylation / activation of JNK (JNK; 20 μg/ml): without effect
phosphorylation / activation of p38 (p38): without effect
PKA-mediated phosphorylation of endogenous substrates / PKA activation (PKA): did not induce PKA activation
effect on transendothelial electrical resistance (TER) [3, 4]: did not exhibit significant effects

CCCCCCCCCCCCCC(=O)OC[C@H](COP(=O)([O-])OCC[N+](C)(C)C)OC(=O)CCCCCCCCCCCCC [DMPC, dimyristoyl phosphatidyl choline]
effect on transendothelial electrical resistance (TER) [3, 4]: did not exhibit significant effects

CC(C)(C)n1nc(-c2ccc(Cl)cc2)c2c(N)ncnc21 [PP-2]
effect on OxPAPC-induced FAK phosphorylation (FAK): attenuated
effect on OxPAPC-induced paxillin phosphorylation (paxillin): attenuated

Cc1cc(C(C)(C)C)c(O)c(C(C)(C)C)c1 [BHT, butylated hydroxytoluene]
effect on OxPAPC-induced Erk-1,2 cascade activation/phosphorylation (Erk-1,2): same levels of Erk-1,2 activation
effect on OxPAPC-induced protein tyrosine phosphorylation [2]: did not affect
effect of preincubation on OxPAPC-induced JNK activation (JNK; OxPAPC preincubated with BHT): same levels of JNK activation
effect of pretreatment on OxPAPC-induced TER increase [3]: did not affect

CCCCCCCCCCCCC/C=C/[C@@H](O)[C@@H](N)COP(=O)(O)O [S1P, sphingosine 1-phosphate]
concentration giving maximal barrier protective effect ([3]; HPAEC monolayers): 1 µM
effect on transendothelial electrical resistance (TER) [3, 4]: rapid concentration-dependent TER increase

N#CC(=C(/N)Sc1ccccc1N)/C(C#N)=C(/N)Sc1ccccc1N [UO-126]
effect on OxPAPC-induced Erk-1,2 cascade activation/phosphorylation (Erk-1,2): completely abolished

CN(C)CCCn1cc(C2=C(c3c[nH]c4ccccc34)C(=O)NC2=O)c2ccccc21 [bisindolmaleimide I]
effect on OxPAPC-induced PKC activity (PKC; in vitro kinase assay, preincubation 1 hour): attenuated OxPAPC-induced PKC activation to a lesser extent

thrombin
effect on transendothelial electrical resistance (TER) [3, 4]: abrupt decrease in TER
TER recovery time after maximal TER decline ([3]; thrombin 50 nM, with or without OxPAPC 20 μg/ml, five experiments): 115 min

CCCCC/C=C\CC1C=CC(=O)/C1=C/C1OC1CCCC(=O)O[C@H](COC(=O)CCCCCCCCCCCCCCC)COP(=O)([O-])OCC[N+](C)(C)C (stereo partly drawn) [PECPC, 1-palmitoyl-2-(epoxycyclopentenone)-sn-glycero-3-phosphorylcholine]
co-elution with TER-increasing activity in HPLC-MS of fraction 2 [3]: co-eluted with the fraction exhibiting major barrier-protective activity; also recorded: co-eluted with TER increasing activity

O=c1c(-c2ccc(O)cc2)coc2cc(O)cc(O)c12 [genistein]
effect on OxPAPC-induced Erk-1,2 cascade activation/phosphorylation (Erk-1,2): attenuated
effect on OxPAPC-induced protein tyrosine phosphorylation [2]: abolished

CCCCCCCCCCCCCCCC(=O)OC[C@H](COP(=O)([O-])OCC[N+](C)(C)C)OC(=O)CCCC(=O)O [PGPC]
effect of synthetic fragmented phospholipids on TER [3]: significantly and concentration-dependently decreased TER

CCCCCCCCCCCCCCCC(=O)OC[C@H](COP(=O)([O-])OCC[N+](C)(C)C)OC(=O)CCCC=O [POVPC]
effect of synthetic fragmented phospholipids on TER [3]: significantly and concentration-dependently decreased TER

C[C@@H](N)[C@H]1CC[C@H](C(=O)Nc2ccncc2)CC1 [Y27632]
effect of pretreatment on OxPAPC-induced TER increase [3]: not

lysoPC
effect of synthetic fragmented phospholipids on TER [3]: significantly and concentration-dependently decreased TER

CCCCC/C=C\C/C=C\CCCCCCCC(=O)OC(COC(=O)CCCCCCCCCCCCCCC)COP(=O)([O-])OCC[N+](C)(C)C (stereo not drawn) [PLPC, palmitoyl-linoleate phosphatidyl choline]
effect on transendothelial electrical resistance (TER) [3, 4]: did not exhibit significant effects

CCCCC/C=C\CC1/C(=C\C2OC2CCCC(=O)O[C@H](COC(=O)CCCCCCCCCCCCCCC)COP(=O)([O-])OCC[N+](C)(C)C)C(=O)CC1O (stereo partly drawn) [PEIPC, 1-palmitoyl-2-(epoxyisoprostane E2)-sn-glycero-3-phosphocholine]
co-elution with TER-increasing activity in HPLC-MS of fraction 2 [3]: co-eluted with TER increasing activity
